Test results reported in article PMC5028351, “Natural flavonoids silymarin and quercetin improve the brain distribution of co-administered P-gp substrate drugs” (SpringerPlus, 2016).
Values belong to the compound of their own block, whether it stands above or below them.

Tests used:
[1] = test system: P-gp; assay: In vivo P-gp inhibition study: plasma and brain pharmacokinetics of i.v. quinidine in mice with and without inhibitor pre-treatment; settings: for AUC(0-inf) / AUC(0-t) / Cmax / Tmax: male, C57, mouse, iv, 5 mg/kg; for Effect of pre-treatment on plasma profile of quinidine: quinidine 5 mg/kg i.v., inhibitor i.v. 0.5 h pre-treatment
Experimental: Male C57 mice weighing 30–35 g and of 6–8 weeks old were taken and the animal experiments were conducted in the animal research facility of Syngene International limited, Bengaluru, India. […] Animal study protocols were approved by the Syngene International organisational animal ethics committee, Bengaluru, India.
Dose volumes (5 mL/kg) of drugs were administered by i.v. route via tail vein injection. […]
Mice were divided into three groups (n = 3–4). […] Blood and brain samples were collected at 0.5, 1, 3, 5 and 7 h post dose of probe substrate. Blood was collected from mice under mild anaesthesia via tail vein and collected blood was centrifuged at 5000 rpm to separate plasma.
After sacrificing the mice at different time points, brain was collected homogenised at 5× concentration with phosphate buffered saline using Bullet blender. Fifty µL of brain homogenate or plasma and 200 µL of internal standard (IS) in vehicle (70 % acetonitrile and 30 % water) were mixed in a 96-well hydrophilic solvinert plate. The acetonitrile mixtures were vortexed and centrifuged at 10,000 rpm for 10 min. Supernatant was collected in a 96 well plate and analysed by liquid chromatography with mass spectroscopy (LC-MS, QTRAP ABSCIEX API 4000).
Analysis was carried out using 4000 QTRAP LC/MS/MS system with triple Quadruple mass spectrometer (AB SCIEX) equipped with an electron spray ionisation (ESI). The mass spectrometer was operated in the ESI positive ion mode and detection of ions were performed in the multiple reaction monitoring (MRM) mode.

[2] = test system: P-gp; design: method as in O’Brien et al. 2013; settings: P-gp inhibition using cyclosporin and verapamil; ref O’Brien et al. 2013; cited from earlier work
[3] = test system: P-gp; design: method as in Van Asperen et al. 1996; settings: ref Van Asperen et al. 1996; cited from earlier work
[4] = target: T1, P-gp (Homo sapiens, UniProt P08183); assay: in vitro; settings: Caco-2
T1 sequence (P08183 whole entry): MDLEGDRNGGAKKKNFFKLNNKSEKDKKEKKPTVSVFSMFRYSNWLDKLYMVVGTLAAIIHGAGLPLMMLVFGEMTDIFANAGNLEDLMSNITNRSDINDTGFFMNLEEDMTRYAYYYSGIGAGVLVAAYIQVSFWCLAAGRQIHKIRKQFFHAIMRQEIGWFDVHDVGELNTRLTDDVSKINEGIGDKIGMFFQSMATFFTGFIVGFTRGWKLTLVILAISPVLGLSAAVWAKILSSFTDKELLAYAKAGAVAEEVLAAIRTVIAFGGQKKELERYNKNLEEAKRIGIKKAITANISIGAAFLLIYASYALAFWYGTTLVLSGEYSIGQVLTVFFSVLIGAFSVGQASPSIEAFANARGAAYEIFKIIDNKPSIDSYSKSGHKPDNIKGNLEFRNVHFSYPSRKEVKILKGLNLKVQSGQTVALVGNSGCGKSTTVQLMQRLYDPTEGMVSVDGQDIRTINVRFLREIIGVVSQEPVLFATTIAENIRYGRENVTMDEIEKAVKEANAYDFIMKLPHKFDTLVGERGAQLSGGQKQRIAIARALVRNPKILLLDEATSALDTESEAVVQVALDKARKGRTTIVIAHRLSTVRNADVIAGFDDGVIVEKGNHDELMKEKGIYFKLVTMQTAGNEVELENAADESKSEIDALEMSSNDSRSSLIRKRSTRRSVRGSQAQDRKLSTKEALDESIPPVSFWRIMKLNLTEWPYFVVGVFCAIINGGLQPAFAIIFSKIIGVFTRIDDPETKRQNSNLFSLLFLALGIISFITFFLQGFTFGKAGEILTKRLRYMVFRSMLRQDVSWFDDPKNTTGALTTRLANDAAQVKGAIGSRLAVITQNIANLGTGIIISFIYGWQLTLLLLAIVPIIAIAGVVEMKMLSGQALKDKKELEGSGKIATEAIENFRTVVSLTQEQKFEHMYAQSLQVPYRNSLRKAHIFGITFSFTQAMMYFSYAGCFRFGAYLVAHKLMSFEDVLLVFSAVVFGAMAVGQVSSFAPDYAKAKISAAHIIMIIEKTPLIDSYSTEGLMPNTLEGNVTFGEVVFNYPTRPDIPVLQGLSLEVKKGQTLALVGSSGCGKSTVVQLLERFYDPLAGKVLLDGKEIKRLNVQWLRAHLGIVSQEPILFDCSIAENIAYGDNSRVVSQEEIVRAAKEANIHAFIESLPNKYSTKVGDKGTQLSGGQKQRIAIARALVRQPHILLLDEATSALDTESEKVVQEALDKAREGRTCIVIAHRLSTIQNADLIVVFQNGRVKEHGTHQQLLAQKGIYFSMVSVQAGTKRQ
Experimental: (§1) Caco-2 cells were seeded in transwell poly carbonate inserts (6 well, 0.4 µm pore size, Corning co-star Co.) at 70,000 cells per insert on the day of seeding. Cells were cultured in DMEM supplemented with 10 % fetal bovine serum and 1 % non essential amino acids (Gibco). All the cells were incubated at 37 °C in a humidified atmosphere with 5 % CO2 and 95 % air. For uptake studies, Caco-2 cells were seeded on to 0.7 cm^2 dishes at a density of approximately 70,000 cells per dish and used for experiment.

[5] = test system: Caco-2; settings: ref Collett et al. 2004; cited from earlier work
[6] = target: T1, P-gp; settings: digoxin 10 µM alone
Experimental: as §1

- AUC(0-inf) ([1]; brain): 251 ng·h/mL
- AUC(0-t) ([1]; brain): 211 ng·h/mL
- Cmax ([1]; brain): 115 ng/mL
- Tmax ([1]; brain): 48 min
- AUC(0-inf) ([1]; plasma): 513 ng·h/mL
- AUC(0-t) ([1]; plasma): 496 ng·h/mL
- Cmax ([1]; plasma): 209 ng/mL
- Tmax ([1]; plasma): 39.6 min
Structure (SMILES): C=C[C@H]1C[N@@]2CC[C@H]1C[C@@H]2[C@@H](O)c1ccnc2ccc(OC)cc12 [Quinidine]

Structure (SMILES): CN(C)CCC[C@@]1(c2ccc(F)cc2)OCc2cc(C#N)ccc21 [Escitalopram]
- Increase in brain concentration [2]: threefold

Structure (SMILES): O=c1c(O)c(-c2ccc(O)c(O)c2)oc2cc(O)cc(O)c12 [Quercetin]
- Increase in (AUC) 0–7h B/P of quinidine ([1]; mice, inhibitor pre-treatment): twofold
- Effect of pre-treatment on plasma profile of quinidine ([1]; mice): no significant difference

Structure (SMILES): COc1cc2c(cc1OC)CN(CCc1ccc(NC(=O)c3cccc4c(=O)c5cccc(OC)c5[nH]c34)cc1)CC2 [Elacridar]
- Effect of pre-treatment on plasma profile of quinidine ([1]; mice): no significant difference

Structure (SMILES): CC[C@]1(O)C[C@@H]2CN(CCc3c([nH]c4ccccc34)[C@@](C(=O)OC)(c3cc4c(cc3OC)N(C)[C@H]3[C@@](O)(C(=O)OC)[C@H](OC(C)=O)[C@]5(CC)C=CCN6CC[C@]43[C@@H]65)C2)C1 [vinblastine]
- Penetration into the brain, P-gp knockout mice compared with wild type control [3]: 7–46 folds

- Papp A→B at 10 µM [4]: 0.0518 ×10⁻⁶ cm/s
- Papp B→A at 10 µM [4]: 1.8 ×10⁻⁶ cm/s
- AP-BL transport of digoxin ([6]; Caco-2 (Table 3)): 5.18 10^−8 cm/s
- BL-AP transport of digoxin ([6]; Caco-2 (Table 3)): 1.80 ×10⁻⁶ cm/s
- AP-BL transport (PappA–B) of digoxin ([6]; Caco-2 monolayers): 0.0518 ×10⁻⁶ cm/s
- BL-AP transport (PappB–A) of digoxin ([6]; Caco-2 monolayers): 1.8 ×10⁻⁶ cm/s
Structure (SMILES): C[C@H]1O[C@@H](O[C@H]2[C@@H](O)C[C@H](O[C@H]3[C@@H](O)C[C@H](O[C@H]4CC[C@@]5(C)[C@H](CC[C@@H]6[C@@H]5C[C@@H](O)[C@]5(C)[C@@H](C7=CC(=O)OC7)CC[C@]65O)C4)O[C@@H]3C)O[C@@H]2C)C[C@H](O)[C@@H]1O [Digoxin]
- Caco-2 Papp [5]: 1.1 ×10⁻⁶ cm/s
